The text below walks through data of patent US8063220B2, “Sulfonyl-quinoline derivatives” (Richter Gedeon Nyrt., priority 2007, dated 2011).

For one experiment, the target named is mGluR1 receptors (Homo sapiens, UniProt Q13255). Description: Activity on mGluR1 receptors (test not specified).
The target in a further experiment is mGluR5 receptors (Homo sapiens, UniProt P41594). Description: Activity on mGluR5 receptors (test not specified).
For a further experiment, the target named is T1, rat mGluR1 (Rattus norvegicus, UniProt P23385).
T1 construct: rat cerebellar membrane preparation was used; from tissue; host or cells: rat cerebellum (membrane preparation)
The experiment can be described thus: MGluR1 receptor binding test ([3H]R214127 displacement, rat cerebellar membrane preparation). To be noted: rat mGluR1, [3H]R214127 3 nM; read-out: mGlu1 Ki. The gist of the method: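 Rat cerebellar membranes with 3 nM [3H]R214127; nonspecific binding defined by 1 μM R214127. IC50 from displacement curves by nonlinear regression, converted to Ki by Cheng–Prusoff.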

Another experiment concerns the target T2, rat mGluR5 (Rattus norvegicus, UniProt P31424).
T2 construct: Rat cerebro-cortical membrane preparation was used; from tissue; host or cells: rat cerebral cortex (membrane preparation)
Description: MGluR5 receptor binding test ([3H]-M-MPEP displacement, rat cerebro-cortical membrane preparation). As to conditions: rat mGluR5, [3H]-M-MPEP 2 nM; read-out: mGlu5 Ki. How it is done:
Rat cerebro-cortical membrane preparation was used to determine the binding characteristics of reference compounds and novel compounds to the rat mGluR5. The A18 cell line expressing hmGluR5a (purchased from Euroscreen) was used to determine binding characteristics of the chemical compounds to the human mGluR5a receptor. [3H]-M-MPEP (2 nM) was used as radioligand. The nonspecific binding was determined in the presence of 10 μM M-MPEP.

T1 sequence (P23385 19-1199): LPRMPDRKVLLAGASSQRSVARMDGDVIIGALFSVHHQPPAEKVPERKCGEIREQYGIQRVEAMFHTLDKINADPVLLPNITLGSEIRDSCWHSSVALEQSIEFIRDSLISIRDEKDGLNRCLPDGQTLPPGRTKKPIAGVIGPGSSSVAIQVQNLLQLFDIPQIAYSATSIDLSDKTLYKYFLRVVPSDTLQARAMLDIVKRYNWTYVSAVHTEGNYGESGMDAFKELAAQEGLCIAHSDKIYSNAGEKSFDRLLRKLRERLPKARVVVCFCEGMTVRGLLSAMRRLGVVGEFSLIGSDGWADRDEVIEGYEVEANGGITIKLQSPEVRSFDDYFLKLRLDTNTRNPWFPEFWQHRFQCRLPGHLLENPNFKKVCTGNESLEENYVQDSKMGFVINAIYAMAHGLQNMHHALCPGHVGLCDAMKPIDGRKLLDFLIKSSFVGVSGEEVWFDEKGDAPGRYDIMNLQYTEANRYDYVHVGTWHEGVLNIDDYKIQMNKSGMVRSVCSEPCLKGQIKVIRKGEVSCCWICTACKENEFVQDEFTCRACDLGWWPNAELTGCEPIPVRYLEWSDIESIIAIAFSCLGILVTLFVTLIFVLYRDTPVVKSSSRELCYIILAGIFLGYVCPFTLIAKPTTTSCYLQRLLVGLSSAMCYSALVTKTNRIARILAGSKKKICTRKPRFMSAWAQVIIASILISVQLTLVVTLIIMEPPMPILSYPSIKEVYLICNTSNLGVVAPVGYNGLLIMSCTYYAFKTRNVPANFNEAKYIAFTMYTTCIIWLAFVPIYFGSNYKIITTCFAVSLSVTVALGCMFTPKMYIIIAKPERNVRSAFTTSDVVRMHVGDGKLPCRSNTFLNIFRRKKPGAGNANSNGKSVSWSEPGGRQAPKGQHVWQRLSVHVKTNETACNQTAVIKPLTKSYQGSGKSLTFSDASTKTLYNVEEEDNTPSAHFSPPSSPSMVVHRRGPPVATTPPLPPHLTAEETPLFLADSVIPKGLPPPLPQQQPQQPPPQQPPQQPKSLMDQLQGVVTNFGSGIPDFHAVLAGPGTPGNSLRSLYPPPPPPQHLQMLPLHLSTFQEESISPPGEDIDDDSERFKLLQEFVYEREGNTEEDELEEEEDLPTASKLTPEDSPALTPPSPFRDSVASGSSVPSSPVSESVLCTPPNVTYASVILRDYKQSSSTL
T2 sequence (P31424 21-1203): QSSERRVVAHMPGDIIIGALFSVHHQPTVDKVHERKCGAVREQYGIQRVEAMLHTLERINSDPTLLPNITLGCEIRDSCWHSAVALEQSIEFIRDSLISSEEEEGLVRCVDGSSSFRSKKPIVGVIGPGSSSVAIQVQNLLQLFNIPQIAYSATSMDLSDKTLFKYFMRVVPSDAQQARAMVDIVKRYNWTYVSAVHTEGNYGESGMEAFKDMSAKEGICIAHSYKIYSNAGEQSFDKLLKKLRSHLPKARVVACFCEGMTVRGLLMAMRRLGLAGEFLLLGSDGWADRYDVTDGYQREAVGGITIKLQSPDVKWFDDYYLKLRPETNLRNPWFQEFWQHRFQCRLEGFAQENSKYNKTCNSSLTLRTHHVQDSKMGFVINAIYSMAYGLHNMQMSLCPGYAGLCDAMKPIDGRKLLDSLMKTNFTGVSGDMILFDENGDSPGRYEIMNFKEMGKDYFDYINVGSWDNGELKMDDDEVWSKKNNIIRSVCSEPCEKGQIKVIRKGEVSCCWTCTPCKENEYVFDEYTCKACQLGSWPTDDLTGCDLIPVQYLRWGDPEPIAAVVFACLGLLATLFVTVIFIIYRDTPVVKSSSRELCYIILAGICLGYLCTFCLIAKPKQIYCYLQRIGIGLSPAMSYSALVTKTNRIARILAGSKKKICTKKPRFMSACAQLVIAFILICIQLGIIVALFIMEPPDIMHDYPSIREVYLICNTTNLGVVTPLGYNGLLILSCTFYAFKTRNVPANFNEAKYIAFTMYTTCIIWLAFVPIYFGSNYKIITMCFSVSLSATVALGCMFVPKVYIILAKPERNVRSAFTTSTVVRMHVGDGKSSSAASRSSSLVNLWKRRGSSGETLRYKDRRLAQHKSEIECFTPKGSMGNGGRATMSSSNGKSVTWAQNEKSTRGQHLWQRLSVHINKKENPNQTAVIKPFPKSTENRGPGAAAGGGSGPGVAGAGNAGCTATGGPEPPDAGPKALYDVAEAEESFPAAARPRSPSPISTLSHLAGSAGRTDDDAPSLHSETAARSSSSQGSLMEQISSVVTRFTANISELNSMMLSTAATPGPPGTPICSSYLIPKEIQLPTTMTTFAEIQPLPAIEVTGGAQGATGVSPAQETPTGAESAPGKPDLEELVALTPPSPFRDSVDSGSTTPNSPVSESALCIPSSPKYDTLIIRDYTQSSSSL
Chain of mGluR5 receptors (P41594 21-1212): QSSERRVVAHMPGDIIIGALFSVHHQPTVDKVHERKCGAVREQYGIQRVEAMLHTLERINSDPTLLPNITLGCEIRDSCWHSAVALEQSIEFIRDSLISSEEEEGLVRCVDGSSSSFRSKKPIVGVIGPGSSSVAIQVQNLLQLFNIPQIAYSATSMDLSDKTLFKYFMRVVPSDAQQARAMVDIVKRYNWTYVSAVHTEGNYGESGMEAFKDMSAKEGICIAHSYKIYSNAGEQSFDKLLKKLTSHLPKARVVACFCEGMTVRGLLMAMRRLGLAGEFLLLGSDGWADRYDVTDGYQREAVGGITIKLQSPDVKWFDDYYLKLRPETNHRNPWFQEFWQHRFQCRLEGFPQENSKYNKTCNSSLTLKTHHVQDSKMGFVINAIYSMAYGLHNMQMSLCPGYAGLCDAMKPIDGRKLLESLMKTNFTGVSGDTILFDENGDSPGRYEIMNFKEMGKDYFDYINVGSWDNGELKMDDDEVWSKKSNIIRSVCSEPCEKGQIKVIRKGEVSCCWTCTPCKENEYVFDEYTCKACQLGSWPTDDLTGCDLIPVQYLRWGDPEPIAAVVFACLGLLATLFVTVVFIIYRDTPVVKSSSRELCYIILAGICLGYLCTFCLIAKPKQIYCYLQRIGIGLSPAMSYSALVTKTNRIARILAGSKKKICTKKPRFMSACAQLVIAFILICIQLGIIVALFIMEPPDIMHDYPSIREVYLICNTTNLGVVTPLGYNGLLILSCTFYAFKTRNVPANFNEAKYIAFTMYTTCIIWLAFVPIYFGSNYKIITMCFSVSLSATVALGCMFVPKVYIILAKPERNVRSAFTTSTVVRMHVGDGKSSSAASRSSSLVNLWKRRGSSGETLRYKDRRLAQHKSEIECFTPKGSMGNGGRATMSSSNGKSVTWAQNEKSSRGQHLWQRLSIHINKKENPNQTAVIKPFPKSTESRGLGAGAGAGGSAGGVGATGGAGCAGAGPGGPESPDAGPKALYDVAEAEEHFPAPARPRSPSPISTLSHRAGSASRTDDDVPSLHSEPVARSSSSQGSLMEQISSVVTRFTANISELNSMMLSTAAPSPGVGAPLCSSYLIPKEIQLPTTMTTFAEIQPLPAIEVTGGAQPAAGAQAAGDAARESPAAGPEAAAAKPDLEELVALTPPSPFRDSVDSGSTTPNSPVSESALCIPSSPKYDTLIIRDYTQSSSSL
Chain of mGluR1 receptors (Q13255 19-1194): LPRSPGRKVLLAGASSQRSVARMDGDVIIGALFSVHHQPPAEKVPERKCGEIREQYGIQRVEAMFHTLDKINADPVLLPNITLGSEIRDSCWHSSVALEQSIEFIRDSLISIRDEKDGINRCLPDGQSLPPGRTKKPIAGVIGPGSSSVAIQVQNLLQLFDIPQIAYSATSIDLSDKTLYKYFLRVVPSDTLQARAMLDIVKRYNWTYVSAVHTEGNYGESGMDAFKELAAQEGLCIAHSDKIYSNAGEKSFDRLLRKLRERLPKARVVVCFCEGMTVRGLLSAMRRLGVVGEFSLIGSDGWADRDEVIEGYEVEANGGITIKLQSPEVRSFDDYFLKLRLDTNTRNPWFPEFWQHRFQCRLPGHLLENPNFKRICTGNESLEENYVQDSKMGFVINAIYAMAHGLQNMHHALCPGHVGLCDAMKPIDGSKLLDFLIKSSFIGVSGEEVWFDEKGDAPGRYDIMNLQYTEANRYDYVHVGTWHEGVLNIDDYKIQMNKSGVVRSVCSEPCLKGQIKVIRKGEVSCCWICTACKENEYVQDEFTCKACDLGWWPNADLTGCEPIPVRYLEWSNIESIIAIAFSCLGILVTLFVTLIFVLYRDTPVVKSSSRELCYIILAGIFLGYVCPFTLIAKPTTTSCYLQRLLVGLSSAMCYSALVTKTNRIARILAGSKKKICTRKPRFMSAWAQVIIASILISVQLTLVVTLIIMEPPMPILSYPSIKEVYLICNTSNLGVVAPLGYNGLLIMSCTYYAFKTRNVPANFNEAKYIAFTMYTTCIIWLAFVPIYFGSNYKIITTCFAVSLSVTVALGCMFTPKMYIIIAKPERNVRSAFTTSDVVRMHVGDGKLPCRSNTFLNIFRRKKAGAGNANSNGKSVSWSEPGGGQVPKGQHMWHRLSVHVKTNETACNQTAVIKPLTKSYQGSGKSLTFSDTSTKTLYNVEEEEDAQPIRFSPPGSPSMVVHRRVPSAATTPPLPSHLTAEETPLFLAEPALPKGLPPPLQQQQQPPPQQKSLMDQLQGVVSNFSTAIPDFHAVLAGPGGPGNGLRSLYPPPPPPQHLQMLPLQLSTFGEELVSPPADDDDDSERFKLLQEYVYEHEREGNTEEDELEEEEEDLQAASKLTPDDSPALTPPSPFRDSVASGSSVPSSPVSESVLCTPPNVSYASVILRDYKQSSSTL

On to `O=S(=O)(c1ccccc1)c1cnc2c(C(F)(F)F)cccc2c1-c1ccccc1` [3-benzenesulfonyl-4-phenyl-8-trifluoromethyl-quinoline], for which the “activity on mGluR1 receptors” value on mGluR1 receptors is “inactive”. Besides, at mGluR5 receptors, the “activity on mGluR5 receptors” value was “inactive”.

For the molecule `N#Cc1cc(F)cc(S(=O)(=O)c2cnc3cc(Cl)ccc3c2-c2cccc(Cl)c2)c1` [Compound 250], the Ki on rat mGluR1 is 200 to 500 nM; on rat mGluR5 it was below 200 nM.

Turning to `O=S(=O)(c1ccc(F)c(F)c1)c1cnc2cc(F)ccc2c1-c1ccc(F)c(F)c1` [Compound 251], the Ki at rat mGluR1 is above 500 nM; on rat mGluR5, below 200 nM.

With `O=S(=O)(c1cc(Cl)cc(Cl)c1)c1cnc2c(F)c(Cl)ccc2c1-c1cccc(Cl)c1` [Compound 252], the inhibition constant (Ki) on rat mGluR1 is 200 to 500 nM; on rat mGluR5, below 200 nM.

Turning to `N#Cc1cccc(S(=O)(=O)c2cnc3c(F)c(Cl)ccc3c2-c2cccc(Cl)c2)c1` [Compound 253], the Ki at rat mGluR1 was 200 to 500 nM; at rat mGluR5, below 200 nM.

For `N#Cc1cccc(S(=O)(=O)c2cnc3cc(Cl)ccc3c2-c2cccc(Cl)c2)c1` [Compound 254], the figures for the Ki on rat mGluR1 and on rat mGluR5 were 200 to 500 nM and below 200 nM, respectively.

For the molecule `O=S(=O)(c1cc(Cl)cc(Cl)c1)c1cnc2cc(Cl)ccc2c1-c1ccccc1F` [Compound 255], the Ki on rat mGluR1 is 200 to 500 nM; at rat mGluR5, below 200 nM.

As to `N#Cc1cc(C#N)cc(S(=O)(=O)c2cnc3cc(F)ccc3c2-c2ccc(F)c(F)c2)c1` [Compound 256], the Ki is above 500 nM on rat mGluR1 and below 200 nM on rat mGluR5.

Consider `O=S(=O)(c1cc(Cl)cc(Cl)c1)c1cnc2cc(F)ccc2c1-c1ccccc1F` [Compound 257], for which the inhibitory constant (Ki) on rat mGluR1 is above 500 nM; on rat mGluR5 it was below 200 nM.

On to `O=S(=O)(c1ccc(F)c(Cl)c1)c1cnc2cc(F)ccc2c1-c1cccc(Cl)c1` [Compound 258], for which the Ki on rat mGluR1 is 200 to 500 nM; at rat mGluR5 it was below 200 nM.

Turning to `O=S(=O)(c1ccc(F)c(F)c1)c1cnc2c(F)cccc2c1-c1cccc(Cl)c1` [Compound 259], the Ki is above 500 nM at rat mGluR1 and below 200 nM at rat mGluR5.

As to `O=S(=O)(c1ccc(F)c(F)c1)c1cnc2ccccc2c1-c1ccc(Cl)c(Cl)c1` [Compound 260], the values for the Ki on rat mGluR1 and at rat mGluR5 were above 500 nM and below 200 nM, respectively.

For the molecule `O=S(=O)(c1ccc(F)c(F)c1)c1cnc2cc(F)ccc2c1-c1ccccc1F` [Compound 261], the Ki on rat mGluR1 is above 500 nM; on rat mGluR5, below 200 nM.

`O=S(=O)(c1ccc(F)c(Cl)c1)c1cnc2cc(Cl)ccc2c1-c1cc(F)cc(F)c1` [Compound 262]: the Ki at rat mGluR1 and on rat mGluR5 was below 200 nM throughout.

`O=S(=O)(c1cc(Cl)cc(Cl)c1)c1cnc2cc(Cl)ccc2c1-c1cccc(Cl)c1` [Compound 263]: the inhibition constant Ki was 200 to 500 nM on rat mGluR1 and below 200 nM at rat mGluR5.

As for `Nc1ccc2c(-c3cccc(F)c3)c(S(=O)(=O)c3ccc(F)c(F)c3)cnc2c1` [Compound 264, 7-Amino-3-(3,4-difluoro-benzenesulfonyl)-4-(3-fluoro-phenyl)-quinoline], the Ki is 200 to 500 nM on rat mGluR1 and below 200 nM at rat mGluR5.

For the molecule `N#Cc1cccc(S(=O)(=O)c2cnc3ccccc3c2-c2cccc(Cl)c2)c1` [Compound 265], the results for the Ki at rat mGluR1 and on rat mGluR5 were above 500 nM and below 200 nM, respectively.

Regarding `N#Cc1cc(F)cc(S(=O)(=O)c2cnc3ccccc3c2-c2ccc(F)c(F)c2)c1` [Compound 266], the Ki at rat mGluR1 is above 500 nM; on rat mGluR5, below 200 nM.

Take `N#Cc1cc(F)cc(S(=O)(=O)c2cnc3cc(F)ccc3c2-c2ccc(Cl)cc2)c1` [Compound 268]: the Ki on rat mGluR1 is above 500 nM; on rat mGluR5, below 200 nM.

As for `N#Cc1cc(F)cc(S(=O)(=O)c2cnc3cc(Cl)ccc3c2-c2ccc(Cl)cc2)c1` [Compound 269], the Ki at rat mGluR1 was above 500 nM; on rat mGluR5, below 200 nM.

Consider `N#Cc1cc(F)cc(S(=O)(=O)c2cnc3ccccc3c2-c2ccc(F)cc2)c1` [Compound 271], for which the inhibitory constant (Ki) on rat mGluR1 was above 500 nM; on rat mGluR5, below 200 nM.

With `N#Cc1cc(F)cc(S(=O)(=O)c2cnc3ccccc3c2-c2ccc(Cl)cc2)c1` [Compound 272], the Ki on rat mGluR1 was above 500 nM; on rat mGluR5 it was below 200 nM.

Take `N#Cc1cc(S(=O)(=O)c2cnc3ccccc3c2-c2ccc(Cl)cc2)ccc1F` [Compound 273]: the values for the Ki at rat mGluR1 and at rat mGluR5 were above 500 nM and below 200 nM, respectively.

As for `N#Cc1cc(S(=O)(=O)c2cnc3cc(F)ccc3c2-c2ccc(Cl)cc2)ccc1F` [Compound 274], the values for the Ki at rat mGluR1 and at rat mGluR5 were above 500 nM and below 200 nM, respectively.

For the molecule `N#Cc1cc(S(=O)(=O)c2cnc3cc(F)ccc3c2-c2ccc(F)cc2)ccc1F` [Compound 275], the Ki is above 500 nM at rat mGluR1 and below 200 nM on rat mGluR5.

As to `N#Cc1cc(S(=O)(=O)c2cnc3cc(Cl)ccc3c2-c2ccc(F)cc2)ccc1F` [Compound 276], the Ki at rat mGluR1 is 200 to 500 nM; at rat mGluR5, below 200 nM.

For the molecule `N#Cc1cc(S(=O)(=O)c2cnc3cc(Cl)ccc3c2-c2ccc(Cl)cc2)ccc1F` [Compound 277], the Ki on rat mGluR1 was 200 to 500 nM; on rat mGluR5, below 200 nM.

Take `N#Cc1cc(F)cc(S(=O)(=O)c2cnc3c(N)cccc3c2-c2ccc(F)cc2)c1` [Compound 278]: the Ki on rat mGluR1 is above 500 nM; at rat mGluR5 it was below 200 nM.

On to `N#Cc1cc(F)cc(S(=O)(=O)c2cnc3c(N)cccc3c2-c2cccc(F)c2)c1` [Compound 279], for which the Ki on rat mGluR1 was above 500 nM; on rat mGluR5 it was below 200 nM.

By Ki is commonly meant a measure of affinity in units of concentration, obtained from inhibition or displacement.
